The target in assay [1] is Beta Secretase enzyme (BACE) (Homo sapiens, UniProt P56817). Nature of the assay: In vitro enzymatic BACE FRET (fluorescence resonance energy transfer) assay. Format: biochemical. Conditions: average IC50, enzyme assay; read-out: BACE 1 FRET assay. An outline of the steps: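 Enzyme activity was measured at pH 4.2 (0.05 M acetate, 10% DMSO final, 100 uM genapol) by cleavage of a 50 nM quenched fluorogenic peptide. After one hour, Tris was added to neutralise the pH and fluorescence was recorded.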
Chain of Beta Secretase enzyme (BACE) (P56817 46-501, species assumed): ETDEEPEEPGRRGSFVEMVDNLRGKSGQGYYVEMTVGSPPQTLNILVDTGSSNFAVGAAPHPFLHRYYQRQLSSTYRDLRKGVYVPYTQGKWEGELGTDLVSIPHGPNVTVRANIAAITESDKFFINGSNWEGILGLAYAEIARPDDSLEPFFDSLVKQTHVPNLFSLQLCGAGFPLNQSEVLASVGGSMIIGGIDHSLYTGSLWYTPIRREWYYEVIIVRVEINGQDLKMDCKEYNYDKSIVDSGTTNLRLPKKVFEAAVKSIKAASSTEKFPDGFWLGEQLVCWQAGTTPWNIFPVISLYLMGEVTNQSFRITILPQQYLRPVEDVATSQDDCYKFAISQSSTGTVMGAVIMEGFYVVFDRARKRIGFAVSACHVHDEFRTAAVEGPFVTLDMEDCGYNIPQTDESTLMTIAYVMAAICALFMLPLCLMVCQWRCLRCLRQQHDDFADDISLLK

The test system of assay [2] is Aβ40 in conditioned medium of cells stably expressing Amyloid Precursor Protein (APP). Nature of the assay: In vitro BACE cell-based assay (Aβ40 in conditioned medium, sandwich ELISA). As to conditions: read-out: HEK cell assay. An outline of the steps:
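Step two: 10-point compound titration added, starting 100 μM or 10 μM, 0.1% DMSO. Step three: medium Aβ40 measured by ELISA, capture 3 h and detection 2 h at 4° C, TRF read.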
A general note: An ELISA detects its analyte on a solid surface through an enzyme-linked reagent.

[3] abbreviates: Homo sapiens, HEK293, average IC50.
The mark [4] stands for this setting: Homo sapiens, HEK293, average IC50, HEK cells.

Like-named read-outs stand apart in the source and are kept apart here.

For `CC(C)(C#N)COc1cc(F)c2c(c1)[C@]1(COC(N)=N1)c1cc(-c3cnccn3)ccc1O2` [Example 93, (S)-3-(2-amino-5′-fluoro-2′-(pyrazin-2-yl)-5H-spiro[oxazole-4,9′-xanthene]-7′-yloxy)-2,2-dimethylpropanenitrile], the IC50 stood at 2.8 nM in assay [1] and 14.6 nM in assay [2] (setting [3]).
For `NC1=N[C@@]2(CO1)c1cc(-c3cncc(F)c3)ccc1Oc1cnc(-c3cncc(F)c3)cc12` [Example 373, (5S)-3,7-bis(5-fluoro-3-pyridinyl)spiro[chromeno[2,3-c]pyridine-5,4′-[1,3]oxazol]-2′-amine] the same measures were 2.2 nM and 22.8 nM.
In the case of `NC1=N[C@@]2(CO1)c1cc(-c3cccnc3F)ccc1Oc1c(F)cc(N3CC4(CCCO4)C3)cc12` [Example 855, (4S)-4′-fluoro-7′-(2-fluoro-3-pyridinyl)-2′-(5-oxa-2-azaspiro[3.4]oct-2-yl)spiro[1,3-oxazole-4,9′-xanthen]-2-amine], the IC50 in assay [1] was 0.7 nM; in assay [2] (setting [4]) it was 2 nM.
As for `NC1=N[C@]2(CO1)c1cc(N3CCOCC3)ccc1Oc1cc(F)c(-c3cncnc3)cc12` [Example 335, (4S)-3′-fluoro-7′-(4-morpholinyl)-2′-(5-pyrimidinyl)spiro[1,3-oxazole-4,9′-xanthen]-2-amine], the IC50 turned out to be 16.4 nM in assay [1] and 43.3 nM in assay [2] (setting [3]).
With `COCC1SC(N)=N[C@@]12c1cc(-c3cccnc3F)ccc1Oc1cnc(Cl)cc12` (stereo partly drawn) [Example 1088, (5R)-3-chloro-7-(2-fluoro-3-pyridinyl)-5′-(methoxymethyl)spiro[chromeno[2,3-c]pyridine-5,4′-[1,3]thiazol]-2′-amine, (5S)-3-chloro-7-(2-fluoro-3-pyridinyl)-5′-(methoxymethyl)spiro[chromeno[2,3-c]pyridine-5,4′-[1,3]thiazol]-2′-amine], the IC50 stood at 115 nM in assay [1] and 3060 nM in assay [2].
Turning to `COc1ccnc(F)c1-c1ccc2c(c1)[C@@]1(COC(N)=N1)c1cc(-c3ccnc(F)c3)ncc1O2` [Example 681, (5S)-7-(2-fluoro-4-methoxy-3-pyridinyl)-3-(2-fluoro-4-pyridinyl)spiro[chromeno[2,3-c]pyridine-5,4′-[1,3]oxazol]-2′-amine], the results for the IC50 in assay [1] and in assay [2] (setting [4]) were 0.5 nM and 12 nM, respectively.
For `Cc1ccc(-c2cnc3c(c2)[C@]2(COC(N)=N2)c2cc(OCc4cccnc4)ccc2O3)cn1` [Example 977, (5S)-3-(6-methyl-3-pyridinyl)-7-(3-pyridinylmethoxy)spiro[chromeno[2,3-b]pyridine-5,4′-[1,3]oxazol]-2′-amine], the IC50 in assay [1] is 51.9 nM; in assay [2] (setting [3]), 430 nM.
For `NC1=N[C@@]2(CS1)c1cc(-c3cccnc3F)ccc1Oc1cnc(N3CCC(F)(F)C3)cc12` (single isomer, unassigned) [Example 704], the IC50 stood at 0.3 nM in assay [1] and 12 nM in assay [2] (setting [4]).
As to `CN(C)c1cc2c(cn1)Oc1ccc(-c3cccnc3F)cc1C21COC(N)=N1` (racemic) [Example 706], the IC50 was 22.4 nM in assay [1] and 205 nM in assay [2] (setting [4]).
For `CN1CCN(c2cccc(-c3ccc4c(c3)[C@@]3(COC(N)=N3)c3cc(Cl)ncc3O4)c2)CC1(C)C` [Example 531, (5S)-3-chloro-7-(3-(3,3,4-trimethyl-1-piperazinyl)phenyl)spiro[chromeno[2,3-c]pyridine-5,4′-[1,3]oxazol]-2′-amine] the same measures were 13700 nM and 334 nM.
For the molecule `Cc1cncc(-c2ccc3c(c2)[C@@]2(COC(N)=N2)c2cc(-c4ccnc(C#N)c4)ncc2O3)c1` [Example 141, 4-((5S)-2′-amino-7-(5-methyl-3-pyridinyl)spiro[chromeno[2,3-c]pyridine-5,4′-[1,3]oxazol]-3-yl)-2-pyridinecarbonitrile], the IC50 in assay [1] was 17.4 nM; in assay [2] (setting [3]), 114 nM.
As to `NC1=N[C@@]2(CO1)c1cc(-c3cccnc3F)ccc1Oc1c(F)cc(N3CCC(F)(F)C3)cc12` [Example 271, (4S)-2′-(3,3-difluoro-1-pyrrolidinyl)-4′-fluoro-7′-(2-fluoro-3-pyridinyl)spiro[1,3-oxazole-4,9′-xanthen]-2-amine], the IC50 in assay [1] is 0.5 nM; in assay [2] (setting [3]) it was 4.1 nM.
For `Cn1cc(-c2cc3c(cn2)Oc2ccc(-c4ccc(F)nc4)cc2[C@@]32COC(N)=N2)cn1` [Example 365, (5S)-7-(6-fluoro-3-pyridinyl)-3-(1-methyl-1H-pyrazol-4-yl)spiro[chromeno[2,3-c]pyridine-5,4′-[1,3]oxazol]-2′-amine], the figures for the IC50 in assay [1] and in assay [2] (setting [3]) were 10.8 nM and 42.4 nM, respectively.
For `NC1=NC2(CO1)c1cc(-c3cccnc3)ccc1Oc1c2cc(C2CCOCC2)nc1F` (stereo not drawn) [Example 752, 1-fluoro-7-(3-pyridinyl)-3-(tetrahydro-2H-pyran-4-yl)spiro[chromeno[2,3-c]pyridine-5,4′-[1,3]oxazol]-2′-amine] the same measures were 5.6 nM and 77 nM.
Turning to `NC1=N[C@@]2(CO1)c1cc(-c3cccnc3F)ccc1Oc1c2cc([C@H]2CCCCO2)nc1F` [Example 660, (5S)-1-fluoro-7-(2-fluoro-3-pyridinyl)-3-((2R)-tetrahydro-2H-pyran-2-yl)spiro[chromeno[2,3-c]pyridine-5,4′-[1,3]oxazol]-2′-amine], the IC50 in assay [1] was determined as 0.5 nM; in assay [2] (setting [4]), 8 nM.
For `CN(C)c1cc2c(cn1)Oc1ccc(-c3cccnc3)cc1[C@@]21COC(N)=N1` [Example 403, (5S)-N~3~,N~3~-dimethyl-7-(3-pyridinyl)spiro[chromeno[2,3-c]pyridine-5,4′-[1,3]oxazole]-2′,3-diamine] the same measures were 43 nM and 111 nM.
The matching figures for `NC1=N[C@@]2(CS1)c1cc(-c3cccnc3)ccc1Oc1ncc(N3CCOCC3)cc12` [Example 602, (5S)-3-(4-morpholinyl)-7-(3-pyridinyl)spiro[chromeno[2,3-b]pyridine-5,4′-[1,3]thiazol]-2′-amine]: 2.8 nM and 17 nM.
For `NC1=N[C@@]2(CO1)c1cc(-c3cccnc3)ccc1Oc1cnc(-c3ccnc(F)c3)cc12` [Example 536, (5S)-3-(2-fluoro-4-pyridinyl)-7-(3-pyridinyl)spiro[chromeno[2,3-c]pyridine-5,4′-[1,3]oxazol]-2′-amine] the same measures were 2.3 nM and 27.1 nM.
Regarding `NC1=N[C@@]2(CO1)c1cc(-c3cncc(F)c3)ccc1Oc1c(F)cc(C3CCOCC3)cc12` [Example 448, (4S)-4′-fluoro-7′-(5-fluoro-3-pyridinyl)-2′-(tetrahydro-2H-pyran-4-yl)spiro[1,3-oxazole-4,9′-xanthen]-2-amine], the IC50 in assay [1] amounted to 2.4 nM; in assay [2] (setting [4]), 7.7 nM.
For the molecule `COc1cc(F)c2c(c1)[C@]1(COC(N)=N1)c1cc(-c3cncc(C(C)(F)F)c3)ccc1O2` [Example 1070, (4S)-7′-(5-(1,1-difluoroethyl)-3-pyridinyl)-4′-fluoro-2′-methoxyspiro[1,3-oxazole-4,9′-xanthen]-2-amine], the IC50 in assay [1] came to 345 nM; in assay [2] (setting [3]), 367 nM.
The matching figures for `COCCN(C)c1cc(F)c2c(c1)[C@]1(COC(N)=N1)c1cc(-c3cccnc3F)ccc1O2` [Example 207, (4S)-4′-fluoro-7′-(2-fluoro-3-pyridinyl)-N~2~′-(2-methoxyethyl)-N~2~′-methylspiro[1,3-oxazole-4,9′-xanthene]-2,2′-diamine]: 7.5 nM and 31.4 nM.
On to `COc1nc(C2CCCOC2)cc2c1Oc1ccc(-c3cccnc3F)cc1[C@@]21COC(N)=N1` (stereo partly drawn) [Example 844, (5S)-7-(2-fluoro-3-pyridinyl)-1-methoxy-3-(tetrahydro-2H-pyran-3-yl)spiro[chromeno[2,3-c]pyridine-5,4′-[1,3]oxazol]-2′-amine], for which the figures for the IC50 in assay [1] and in assay [2] (setting [3]) were 6.7 nM and 66 nM, respectively.
With `NC1=N[C@@]2(CO1)c1cc(-c3cccnc3F)ccc1Oc1ncc([C@@H]3CCCOC3)cc12` [Example 174, (5S)-7-(2-fluoro-3-pyridinyl)-3-((3S)-tetrahydro-2H-pyran-3-yl)spiro[chromeno[2,3-b]pyridine-5,4′-[1,3]oxazol]-2′-amine], the IC50 in assay [1] was 12.1 nM; in assay [2] (setting [3]), 40 nM.
The matching figures for `CC1(COc2cnc3c(c2)C2(COC(N)=N2)c2cc(-c4cc(Cl)ccc4F)ccc2O3)OCCO1` (stereo not drawn) [Example 87, 7-(5-chloro-2-fluorophenyl)-3-((2-methyl-1,3-dioxolan-2-yl)methoxy)-5′H-spiro[chromeno[2,3-b]pyridine-5,4′-oxazol]-2′-amine]: 8.4 nM and 106 nM.
The matching figures for `COc1cccc(Nc2ccc3c(c2)[C@@]2(COC(N)=N2)c2cc(N4CCOCC4)cc(F)c2O3)c1` [Example 198, (4S)-5′-fluoro-N~2~′-(3-methoxyphenyl)-7′-(4-morpholinyl)spiro[1,3-oxazole-4,9′-xanthene]-2,2′-diamine]: 77.9 nM and 572 nM.
For `CC(C)(C#N)COc1cc(F)c2c(c1)[C@]1(CSC(N)=N1)c1cc(-c3cccnc3F)ccc1O2` [Example 800, 3-(((4S)-2-amino-4′-fluoro-7′-(2-fluoro-3-pyridinyl)spiro[1,3-thiazole-4,9′-xanthen]-2′-yl)oxy)-2,2-dimethylpropanenitrile] the same measures were 0.4 nM and 20 nM.
As for `NC1=N[C@@]2(CO1)c1cc(-c3cccnc3F)c(F)cc1Oc1ncc(-c3ccc(F)nc3)cc12` [Example 896, (5S)-8-fluoro-7-(2-fluoro-3-pyridinyl)-3-(6-fluoro-3-pyridinyl)spiro[chromeno[2,3-b]pyridine-5,4′-[1,3]oxazol]-2′-amine], the IC50 in assay [1] worked out at 2.4 nM; in assay [2] (setting [4]), 74 nM.

Source of the values: patent publication US8883782B2, “Spiro-tetracyclic ring compounds as beta-secretase modulators and methods of use” (Amgen Inc., priority 2010, dated 2014).
